Laboratory results from patent US11572590B2, “Methods for evaluating tumor cell spheroids using 3D microfluidic cell culture device” (Dana-Farber Cancer Institute, Inc., priority 2017, dated 2023).

How the values were obtained:
MC38 MDOTS = assay: Live/dead (AO/PI) imaging of MC38 MDOTS in 3D microfluidic culture; format: cell-based, murine; conditions: Cmpd1 (1 μM) + αPD-1; did not reach significance vs single-agent PD-1
Experimental: (§1) Fresh tumor specimens (murine and human patients) were received in media (DMEM) on ice and minced in a 10 cm dish (on ice) using sterile forceps and scalpel. Minced tumor was resuspended in DMEM ([…], […] sodium pyruvate, 1:100 penicillin-streptomycin) (Corning CellGro, Manassas, Va.) +10% FBS (Gemini Bio-Products, West Sacramento, Calif.), 100 U/mL collagenase type IV (Life Technologies, Carlsbad, Calif.), and 15 mM HEPES (Life Technologies, Carlsbad, Calif.), except for CT26 tumors that were prepared in RPMI. Samples were pelleted and resuspended in 10-20 mL media. Red blood cells were removed from visibly bloody samples using RBC Lysis Buffer (Boston Bio-Products, Ashland, Mass.). […]
(§2) Dual labeling was performed by loading microfluidic device with Nexcelom ViaStain™ AO/PI Staining Solution (Nexcelom, CS2-0106). Following incubation with the dyes (20 minutes at room temperature in the dark), images were captured on a Nikon Eclipse 80i fluorescence microscope equipped with Z-stack (Prior) and CoolSNAP CCD camera (Roper Scientific). […] Live and dead cell quantitation was performed by measuring total cell area of each dye. […]

[1] = test system: human CD4+ and CD8+ T cells; assay: IFNγ secretion by anti-CD3/anti-CD28 stimulated T cells; format: cell-based; conditions: dose-titration, 96 hours
Experimental: (§3) Freshly isolated human CD4+ and CD8+ T cells were obtained from AllCells (Alameda, Calif., USA). Cells were spun down and resuspended in serum free Xvivo15 media (Lonza Walkersville, Inc., Chicago, Ill., USA) supplemented with 5 ng/mL […] and incubated overnight at 37° C. Cells were plated on anti-CD3 coated plates (5 μg/mL OKT3, eBioscience, Dallas, Tex., USA, overnight) with 2 μg/mL anti-CD28 (eBioscience, Dallas, Tex., USA). Cells are treated in replicate plates with a dose-titration of Compound 1 for 24 hours for IL-2 and 96 hours for IFNγ. IL-2 and IFNγ in the supernatant were measured using single- or multi-plex immunoassay (Mesoscale Discovery, Rockville, Md., USA). Jurkat T cell leukemia cells (clone E61 obtained from ATCC) plated on anti-CD3 coated plates were treated with a dose titration of Compound 1 for 24 hours. IL-2 in the supernatant was measured as described above.

CT26 MDOTS = assay: Bead-based cytokine profiling of CT26 MDOTS; format: cell-based, murine; conditions: Cmpd1 (1 μM) ± anti-PD-1 (10 μg/mL)
Experimental: as §1
(§4) Two multiplex assays were performed utilizing a bead-based immunoassay approach, the Bio-Plex Pro™ Human Cytokine 40-plex Assay (Cat #171AK99MR2) and Bio-Plex Pro™ Mouse Cytokine Panel 1, 23-plex (Cat #M60009RDPD) on a Bio-plex 200 system (Cat #171000201). […] Fold changes relative to the MDOT/PDOT control were calculated and plotted as log 2FC. Lower and upper limits of quantitation (LLOQ/ULOQ) were imputed from standard curves for cytokines above or below detection. […]

[2] = test system: CT26 spheroids lacking immune cells; assay: Viability of CT26 spheroids lacking immune cells; format: cell-based
Experimental: as §1, §2

[3] = test system: CT26 spheroids (lacking immune cells); assay: Bead-based cytokine profiling of CT26 spheroids lacking immune cells; format: cell-based, murine; conditions: Day 1, 3, and 6
Experimental: as §1, §4

[4] = test system: human CD4+ and CD8+ T cells; assay: IL-2 secretion by anti-CD3/anti-CD28 stimulated T cells; format: cell-based; conditions: dose-titration, 24 hours
Experimental: as §3

N#Cc1cc(-c2ncnc(Nc3ccc(N4CCN(C5COC5)CC4)cc3)n2)ccc1OC1CCOCC1 [Compound 1, 5-(4-((4-(4-(oxetan-3-yl)piperazin-1-yl)phenyl)amino)-1,3,5-triazin-2-yl)-2-((tetrahydro-2H-pyran-4-yl)oxy)benzonitrile]
ex vivo killing of MC38 MDOTS, combination treatment (MC38 MDOTS): enhanced ex vivo killing | secretion of IFN-γ from purified CD4+ and CD8+ T cells [1]: enhanced secretion | cytokines involved in activated innate immune responses (e.g., G-CSF) in CT26 MDOTS (CT26 MDOTS): concomitant induction | levels of CCL4, CCL3, and IL-1β in CT26 MDOTS (CT26 MDOTS): Decreased levels | cytotoxic effects on CT26 cell line spheroids (viability) [2]: without cytotoxic effects | immune suppressive cytokine elaboration by CT26 cell line spheroids [3]: effectively blocked | secretion of IL-2 from purified CD4+ and CD8+ T cells [4]: enhanced secretion
